# pIC50: −log10 of the molar value.
# Target: Pituitary adenylate cyclase-activating polypeptide type I receptor (Homo sapiens) (UniProt P41586)
# Assay: Antagonist activity at human PAC1 expressed in mouse […] 3T3 cells assessed as inhibition of glucagon-induced cAMP accumulation preincubated for 30 mins prior to glucagon challenge measured after 30 mins post glucagon challenge by liquid scintillation counter
# Pituitary adenylate cyclase-activating polypeptide type I receptor (Homo sapiens), sequence (P41586 whole entry, looked up): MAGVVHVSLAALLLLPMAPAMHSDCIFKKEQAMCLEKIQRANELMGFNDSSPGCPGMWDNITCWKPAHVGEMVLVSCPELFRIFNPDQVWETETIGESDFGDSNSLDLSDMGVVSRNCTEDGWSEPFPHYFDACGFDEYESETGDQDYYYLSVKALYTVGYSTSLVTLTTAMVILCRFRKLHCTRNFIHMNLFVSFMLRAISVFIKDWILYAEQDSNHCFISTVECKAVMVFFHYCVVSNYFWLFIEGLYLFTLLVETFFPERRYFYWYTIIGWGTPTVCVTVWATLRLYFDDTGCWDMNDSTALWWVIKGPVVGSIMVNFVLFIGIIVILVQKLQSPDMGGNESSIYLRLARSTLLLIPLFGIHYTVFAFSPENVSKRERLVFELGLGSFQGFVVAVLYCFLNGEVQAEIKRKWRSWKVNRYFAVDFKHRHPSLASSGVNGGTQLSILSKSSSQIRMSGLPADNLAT
smiles,measurement,value
COc1ccc2cc(-c3cc(-c4cc(Cl)cc(Cl)c4)nn3[C@@H](C)c3ccc(C(=O)NCCC(=O)O)cc3)ccc2c1,pIC50,5.04
